The text below walks through data of PubChem BioAssay (NCI).

Where “and” joins values, the source holds several entries; their conditions need not be identical. Equal entries are not always repeated.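 Exposure lasted 48 hours, with cells grown in 96-well plates and compounds tested at five concentrations. GI50: concentration for 50% inhibition of growth. Definition used: TGI = concentration required for complete inhibition of growth.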

Some test systems named below: BT-549 breast; K-562 leukemia; M14 melanoma; MDA-MB-435; OVCAR-5 ovarian; SK-MEL-5 melanoma; SNB-75 CNS; UACC-257 melanoma; HCC-2998 colon; NCI/ADR-RES ovarian; RPMI-8226 leukemia.
Test in all cases: inhibition of tumour cell growth, NCI panel, 48 h

Turning to `C=CC(=O)N1CCN(c2nc(OC[C@@H]3CCCN3C)nc3c2CCN(c2cccc4cccc(C)c24)C3)C[C@@H]1CC#N`, the GI50 was 1.58 µM in the experiment with BT-549 breast; 1.71 µM in the experiment on K-562 leukemia; 1.82 µM with M14 melanoma; 1.7 µM with MDA-MB-435; 1.58 µM in the experiment on OVCAR-5 ovarian; 1.68 µM in the experiment with SK-MEL-5 melanoma. The GI50 in the experiment on SNB-75 CNS was 1.09 µM; in the experiment on UACC-257 melanoma it was 1.79 µM. Further, the TGI in the experiment with BT-549 breast is 3.08 µM; with K-562 leukemia, 4.28 µM; in the experiment with M14 melanoma it was 3.57 µM; in the experiment with MDA-MB-435, 3.19 µM; with OVCAR-5 ovarian, 3.26 µM; in the experiment on SK-MEL-5 melanoma it was 3.06 µM. The figures for the TGI in the experiment with SNB-75 CNS and with UACC-257 melanoma were 2.31 µM and 3.74 µM, respectively.

For `c1ccc(C(c2ccccc2)[P+](c2ccccc2)(c2ccccc2)c2ccccc2)cc1`, the TGI is 11.7 µM in the experiment on HCC-2998 colon; 10.1 µM in the experiment with K-562 leukemia; above 100 µM in the experiment on NCI/ADR-RES ovarian; 13.3 µM in the experiment with OVCAR-5 ovarian; 1.28 µM in the experiment on RPMI-8226 leukemia; 1.15 µM in the experiment with SK-MEL-5 melanoma. In addition, the TGI with SNB-75 CNS was 5.17 µM; with UACC-257 melanoma it was 3.17 µM.

Consider `CCCCCCCCCCCCCCCC[N+](C)(C)CCN(Cc1ccc(OC)cc1)c1ncccn1`, for which the GI50 in the experiment with BT-549 breast was 2.43 µM; in the experiment with K-562 leukemia, 0.838 µM; with NCI/ADR-RES ovarian, 18.7 µM and 3.94 µM; with OVCAR-5 ovarian it was 1.91 µM; in the experiment on SK-MEL-5 melanoma it was 2.68 µM; in the experiment on SNB-75 CNS it was 2.28 µM. In the experiment on UACC-257 melanoma, the GI50 is 5.65 µM. The TGI is 5.83 µM with BT-549 breast; above 100 µM with K-562 leukemia; 64 µM and > 100 µM with NCI/ADR-RES ovarian; 4.62 µM with OVCAR-5 ovarian; 8.77 µM with SK-MEL-5 melanoma; 6.53 µM in the experiment on SNB-75 CNS. In the experiment on UACC-257 melanoma, this molecule yielded a TGI of 39.8 µM.

Regarding `COc1ccccc1N1C(Cl)C(=O)C1c1c[nH]c2ccccc12` (stereo unspecified), the TGI with K-562 leukemia, with M14 melanoma, in the experiment on OVCAR-5 ovarian, with RPMI-8226 leukemia, with SK-MEL-5 melanoma and in the experiment with SNB-75 CNS was above 100 µM in each case. The molecule also came in with a TGI in the experiment with UACC-257 melanoma above 100 µM.

Turning to `Nc1ccc(C2NC(=O)Cc3c2ccc2ccccc32)cc1` (stereo unspecified), the TGI in the experiment on HCC-2998 colon, in the experiment on K-562 leukemia, in the experiment with M14 melanoma, with MDA-MB-435, in the experiment with OVCAR-5 ovarian and with RPMI-8226 leukemia was above 100 µM throughout. The TGI with SK-MEL-5 melanoma, in the experiment on SNB-75 CNS and in the experiment on UACC-257 melanoma was above 100 µM in each case.

With `Cc1ccc2cc3c(ccc4ccccc43)c3c2c1CC3`, the TGI with BT-549 breast, in the experiment on HCC-2998 colon, with K-562 leukemia, in the experiment with M14 melanoma, in the experiment on MDA-MB-435 and with NCI/ADR-RES ovarian was above 100 µM in each case. The TGI in the experiment on OVCAR-5 ovarian, in the experiment with RPMI-8226 leukemia, in the experiment with SK-MEL-5 melanoma, in the experiment with SNB-75 CNS and in the experiment on UACC-257 melanoma was above 100 µM throughout. Further, the GI50 with OVCAR-5 ovarian was above 100 µM.

With `COc1ccc2oc(=O)cc(C)c2c1`, the TGI in the experiment with BT-549 breast, with HCC-2998 colon, with K-562 leukemia, in the experiment with M14 melanoma, in the experiment with MDA-MB-435 and in the experiment on NCI/ADR-RES ovarian was above 100 µM each time. Further, the TGI with OVCAR-5 ovarian, with RPMI-8226 leukemia, in the experiment with SK-MEL-5 melanoma, in the experiment with SNB-75 CNS and with UACC-257 melanoma was above 100 µM each time.

On to `O=C(O)C(O)Cc1ccccn1` (stereo unspecified), for which the TGI with BT-549 breast, in the experiment with HCC-2998 colon, in the experiment with K-562 leukemia, in the experiment with M14 melanoma, in the experiment on MDA-MB-435 and with NCI/ADR-RES ovarian was above 100 µM each time. The TGI in the experiment on OVCAR-5 ovarian, in the experiment on RPMI-8226 leukemia, in the experiment with SK-MEL-5 melanoma and with UACC-257 melanoma was above 100 µM each time.

Regarding `CCCCNc1c(CN)cnc2cc(Cl)ccc12`, the TGI in the experiment on BT-549 breast came to 31.8 µM; with HCC-2998 colon, 9.63 µM; in the experiment with K-562 leukemia, 32.1 µM; in the experiment on M14 melanoma, 36.6 µM; with MDA-MB-435, 35 µM; in the experiment with NCI/ADR-RES ovarian, 32 µM. For the same molecule, the TGI in the experiment on OVCAR-5 ovarian is 35.5 µM; in the experiment with RPMI-8226 leukemia, 37 µM; in the experiment on SK-MEL-5 melanoma, 29.3 µM; in the experiment on SNB-75 CNS, 42.3 µM; in the experiment with UACC-257 melanoma it was 26.5 µM.

For the molecule `CN(C)CCCNc1ncnc2nc[nH]c12`, the TGI in the experiment on BT-549 breast, with HCC-2998 colon, in the experiment with K-562 leukemia, with M14 melanoma, in the experiment with MDA-MB-435 and in the experiment on NCI/ADR-RES ovarian was above 100 µM each time. The TGI in the experiment with OVCAR-5 ovarian, in the experiment with RPMI-8226 leukemia and in the experiment on SK-MEL-5 melanoma was above 100 µM each time.

With `NC(=O)NO`, the TGI was above 2500 µM with BT-549 breast; 1810 µM in the experiment with HCC-2998 colon; above 2260 µM with K-562 leukemia; 1950 µM in the experiment on M14 melanoma; above 2500 µM in the experiment with MDA-MB-435; 2400 µM with NCI/ADR-RES ovarian. The TGI in the experiment on OVCAR-5 ovarian is 1990 µM; with RPMI-8226 leukemia, 2260 µM; with SK-MEL-5 melanoma, 2230 µM; with SNB-75 CNS it was 2310 µM; with UACC-257 melanoma, above 2500 µM.

Turning to `FC(F)(F)C(C1=NC(C(F)(F)F)(C(F)(F)F)N=C(N2CCOCC2)O1)C(F)(F)F`, the TGI in the experiment with BT-549 breast was 56 µM; in the experiment on HCC-2998 colon it was above 100 µM; in the experiment with M14 melanoma it was 60.5 µM; in the experiment on MDA-MB-435, 59.3 µM; with NCI/ADR-RES ovarian it was 49.4 µM; in the experiment with OVCAR-5 ovarian, 46.4 µM. Besides, the TGI with RPMI-8226 leukemia is 57.7 µM; in the experiment on SK-MEL-5 melanoma it was 28.4 µM; in the experiment on SNB-75 CNS it was above 100 µM; in the experiment with UACC-257 melanoma, 75.3 µM.

As for `O=C(c1ccccc1)[C@H]1Nc2ccc(Cl)cc2[C@H]2OCCC[C@@H]12`, the TGI in the experiment on HCC-2998 colon was 45.8 µM; with K-562 leukemia it was 51.4 µM; with M14 melanoma, 31.9 µM; in the experiment on OVCAR-5 ovarian, 35.3 µM; in the experiment on RPMI-8226 leukemia, 57.7 µM.

For `CC(=O)Oc1ccc2c(C)cc(=O)oc2c1`, the TGI in the experiment with BT-549 breast, with HCC-2998 colon, in the experiment on K-562 leukemia, in the experiment with M14 melanoma, in the experiment with MDA-MB-435 and in the experiment on NCI/ADR-RES ovarian was above 100 µM throughout. In addition, the TGI in the experiment on OVCAR-5 ovarian, with RPMI-8226 leukemia, in the experiment with SK-MEL-5 melanoma, in the experiment on SNB-75 CNS and with UACC-257 melanoma was above 100 µM throughout.

Take `O=C(O)CSCC(=O)O`: the TGI in the experiment with BT-549 breast, in the experiment on K-562 leukemia, in the experiment on M14 melanoma, in the experiment on MDA-MB-435, with NCI/ADR-RES ovarian and with OVCAR-5 ovarian was above 100 µM throughout. The TGI in the experiment with SK-MEL-5 melanoma, with SNB-75 CNS and in the experiment on UACC-257 melanoma was above 100 µM in each case.

Regarding `CS/C(=N\C(=S)Nc1ccccc1)Nc1ccccc1`, the TGI was 57 µM in the experiment with HCC-2998 colon; above 100 µM in the experiment with K-562 leukemia; 96.1 µM in the experiment with M14 melanoma; 77.3 µM in the experiment on OVCAR-5 ovarian; 62.1 µM in the experiment with RPMI-8226 leukemia; 21.5 µM with SK-MEL-5 melanoma. Further, in the experiment with SNB-75 CNS, the TGI came to 84.7 µM.

`C=CCOC1OC(CS(=O)(=O)O)C(O)C(O)C1O` (stereo unspecified): the TGI with BT-549 breast, with HCC-2998 colon, with K-562 leukemia, with M14 melanoma, with MDA-MB-435 and in the experiment on NCI/ADR-RES ovarian was above 100 µM throughout. Also, the TGI with OVCAR-5 ovarian, with RPMI-8226 leukemia, in the experiment with SK-MEL-5 melanoma, in the experiment with SNB-75 CNS and with UACC-257 melanoma was above 100 µM each time.
